Active and inactive are the calls of the source.
How the values were obtained:
H9c2 = assay: cells; assay type: functional, cell-based; details: Rattus norvegicus, H9c2, Myocardium;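 note: confirmatory concentration-response retest of ultra-high-throughput screening hits for modulation of myocardial damage; cell death induced by hydrogen peroxide oxidative stress; compound pretreatment for 60 min then peroxide exposure for 2 h; potency is for protecting the cells against peroxide damage rather than for killing them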
Melanocortin receptor 4 = Melanocortin receptor 4 (Homo sapiens, UniProt P32245); assay type: functional, cell-based;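 note: Cell-based assay with luminescence read-out, confirmatory dose-response testing for agonist activity of biased ligands at MC4R; human U2OS cells with tagged receptor and beta-arrestin; potency of agonists that increase receptor coupling to beta-arrestin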
Sequence of Melanocortin receptor 4 (P32245 whole entry): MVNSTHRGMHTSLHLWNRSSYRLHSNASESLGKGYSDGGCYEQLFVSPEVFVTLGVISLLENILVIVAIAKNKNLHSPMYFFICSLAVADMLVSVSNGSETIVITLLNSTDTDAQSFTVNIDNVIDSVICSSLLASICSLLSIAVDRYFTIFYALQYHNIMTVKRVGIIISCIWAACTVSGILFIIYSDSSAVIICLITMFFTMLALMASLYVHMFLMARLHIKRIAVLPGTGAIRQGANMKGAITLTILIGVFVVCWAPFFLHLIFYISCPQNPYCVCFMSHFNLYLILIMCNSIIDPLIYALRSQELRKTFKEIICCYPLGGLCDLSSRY

[1] = biological target: Low molecular weight phosphotyrosine protein phosphatase (Homo sapiens, UniProt P24666); assay type: functional; details: read-out: IC50_Mean;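 note: Dose-response confirmation assay measuring inhibition of LMPTP enzyme activity by fluorescence intensity read-out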
Sequence of Low molecular weight phosphotyrosine protein phosphatase (P24666 whole entry, the tested form may be a part): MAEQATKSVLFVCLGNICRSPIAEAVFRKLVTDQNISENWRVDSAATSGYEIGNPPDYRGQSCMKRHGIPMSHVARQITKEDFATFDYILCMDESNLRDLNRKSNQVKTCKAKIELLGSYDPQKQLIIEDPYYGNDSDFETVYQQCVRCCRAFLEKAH

[2] = biological target: T1, Polyadenylate-binding protein 1 (Homo sapiens, UniProt P11940); assay: MLLE domain peptide-binding blockers, IC50 – biochemical, fluorescence polarization, FITC-PAM2 peptide, dose response (AID 602259); assay type: functional; details: read-out: IC50_Mean
T1 sequence (P11940 whole entry, the tested form may be a part): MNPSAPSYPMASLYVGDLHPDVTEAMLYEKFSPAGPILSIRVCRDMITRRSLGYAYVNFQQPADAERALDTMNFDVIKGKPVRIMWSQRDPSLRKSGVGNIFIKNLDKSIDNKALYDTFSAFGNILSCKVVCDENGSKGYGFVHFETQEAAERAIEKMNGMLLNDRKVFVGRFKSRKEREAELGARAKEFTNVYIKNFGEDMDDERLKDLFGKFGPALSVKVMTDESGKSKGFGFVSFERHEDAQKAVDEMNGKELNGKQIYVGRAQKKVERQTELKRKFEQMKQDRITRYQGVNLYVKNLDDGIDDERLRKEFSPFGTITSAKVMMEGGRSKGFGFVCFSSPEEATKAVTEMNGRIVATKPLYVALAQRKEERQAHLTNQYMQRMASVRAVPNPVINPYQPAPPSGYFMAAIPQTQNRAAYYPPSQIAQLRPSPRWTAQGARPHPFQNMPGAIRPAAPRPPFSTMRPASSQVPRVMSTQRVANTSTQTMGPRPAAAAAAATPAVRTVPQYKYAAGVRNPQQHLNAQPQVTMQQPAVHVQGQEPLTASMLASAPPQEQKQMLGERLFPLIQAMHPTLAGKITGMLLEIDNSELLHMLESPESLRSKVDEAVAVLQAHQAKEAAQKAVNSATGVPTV

[3] = biological target: T1, Polyadenylate-binding protein 1; assay: MLLE binding blockers, Cy5 peptide tracer – biochemical, fluorescence polarization, Cy5-PAM2 peptide, secondary, miRNA deadenylation inhibitor project, dose response (AID 602260); assay type: functional; details: read-out: IC50_Mean
Lethal factor = Lethal factor (Bacillus anthracis, UniProt P15917); assay: High-throughput multiplex microsphere dose response for inhibitors of toxin protease, specifically Lethal Factor protease, compounds from Cherry Pick 02.; assay type: functional; details: read-out: EC50_MICROM
Bcl-2-related protein A1 = biological target: T2, Bcl-2-related protein A1 (Mus musculus, UniProt Q07440); assay type: functional;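 note: confirmatory dose–response counterscreen on Bfl-1, used to check hits from a UBC13 polyubiquitin inhibitor campaign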
T2 sequence (Q07440 whole entry): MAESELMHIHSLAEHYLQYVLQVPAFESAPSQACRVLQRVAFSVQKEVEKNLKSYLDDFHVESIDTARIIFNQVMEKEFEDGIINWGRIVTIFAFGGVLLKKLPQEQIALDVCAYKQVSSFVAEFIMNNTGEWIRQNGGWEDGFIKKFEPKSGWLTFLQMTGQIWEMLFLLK

Insulin-degrading enzyme [4] = biological target: T3, Insulin-degrading enzyme (Homo sapiens, UniProt P14735); assay: recombinant IDE activation, cell-free – biochemical, fluorescence polarization, counter-screen for IDE activator project, dose response (AID 588681)
T3 sequence (P14735 whole entry): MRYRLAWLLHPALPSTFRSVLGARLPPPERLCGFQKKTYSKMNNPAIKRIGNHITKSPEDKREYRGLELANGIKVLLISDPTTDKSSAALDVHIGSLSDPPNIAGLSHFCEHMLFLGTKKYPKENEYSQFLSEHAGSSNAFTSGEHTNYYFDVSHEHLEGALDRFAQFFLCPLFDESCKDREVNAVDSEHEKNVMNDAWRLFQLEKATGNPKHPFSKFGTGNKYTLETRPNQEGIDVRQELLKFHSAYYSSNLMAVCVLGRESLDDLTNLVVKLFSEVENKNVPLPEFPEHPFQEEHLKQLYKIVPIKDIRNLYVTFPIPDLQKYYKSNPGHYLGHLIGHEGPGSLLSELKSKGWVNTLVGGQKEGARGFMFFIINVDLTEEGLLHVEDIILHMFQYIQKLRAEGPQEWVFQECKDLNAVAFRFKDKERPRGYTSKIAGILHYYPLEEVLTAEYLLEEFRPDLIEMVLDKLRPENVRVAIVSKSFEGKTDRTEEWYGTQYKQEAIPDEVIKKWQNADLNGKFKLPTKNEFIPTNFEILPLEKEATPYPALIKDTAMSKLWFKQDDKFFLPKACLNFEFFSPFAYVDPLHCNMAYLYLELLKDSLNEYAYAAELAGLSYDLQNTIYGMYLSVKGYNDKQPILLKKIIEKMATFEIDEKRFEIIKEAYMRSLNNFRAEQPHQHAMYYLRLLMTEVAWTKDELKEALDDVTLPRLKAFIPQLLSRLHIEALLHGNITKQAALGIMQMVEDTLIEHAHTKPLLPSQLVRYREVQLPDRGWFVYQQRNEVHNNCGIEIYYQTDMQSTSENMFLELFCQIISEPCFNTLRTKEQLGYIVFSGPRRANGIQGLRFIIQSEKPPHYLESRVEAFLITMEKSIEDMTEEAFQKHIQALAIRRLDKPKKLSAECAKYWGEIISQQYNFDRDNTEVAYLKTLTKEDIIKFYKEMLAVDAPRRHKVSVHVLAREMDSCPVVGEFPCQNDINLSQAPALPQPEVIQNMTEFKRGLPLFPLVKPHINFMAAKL

[5] = biological target: T4, Ubiquitin-conjugating enzyme E2 N (Homo sapiens, UniProt P61088); assay type: functional
T4 sequence (P61088 whole entry): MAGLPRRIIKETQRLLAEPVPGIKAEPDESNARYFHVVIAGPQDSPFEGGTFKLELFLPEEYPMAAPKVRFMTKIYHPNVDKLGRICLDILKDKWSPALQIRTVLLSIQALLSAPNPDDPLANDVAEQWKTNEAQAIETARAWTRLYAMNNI

Insulin-degrading enzyme [6] = biological target: T3, Insulin-degrading enzyme; assay: cellular IDE activation of Abeta substrate cleavage – fluorescence polarization, HEK cells, dose response (AID 588439); assay type: functional, cell-based
[7] = biological target: T5, Apoptotic protease-activating factor 1 (Homo sapiens, UniProt O14727); assay type: functional
T5 sequence (O14727 whole entry): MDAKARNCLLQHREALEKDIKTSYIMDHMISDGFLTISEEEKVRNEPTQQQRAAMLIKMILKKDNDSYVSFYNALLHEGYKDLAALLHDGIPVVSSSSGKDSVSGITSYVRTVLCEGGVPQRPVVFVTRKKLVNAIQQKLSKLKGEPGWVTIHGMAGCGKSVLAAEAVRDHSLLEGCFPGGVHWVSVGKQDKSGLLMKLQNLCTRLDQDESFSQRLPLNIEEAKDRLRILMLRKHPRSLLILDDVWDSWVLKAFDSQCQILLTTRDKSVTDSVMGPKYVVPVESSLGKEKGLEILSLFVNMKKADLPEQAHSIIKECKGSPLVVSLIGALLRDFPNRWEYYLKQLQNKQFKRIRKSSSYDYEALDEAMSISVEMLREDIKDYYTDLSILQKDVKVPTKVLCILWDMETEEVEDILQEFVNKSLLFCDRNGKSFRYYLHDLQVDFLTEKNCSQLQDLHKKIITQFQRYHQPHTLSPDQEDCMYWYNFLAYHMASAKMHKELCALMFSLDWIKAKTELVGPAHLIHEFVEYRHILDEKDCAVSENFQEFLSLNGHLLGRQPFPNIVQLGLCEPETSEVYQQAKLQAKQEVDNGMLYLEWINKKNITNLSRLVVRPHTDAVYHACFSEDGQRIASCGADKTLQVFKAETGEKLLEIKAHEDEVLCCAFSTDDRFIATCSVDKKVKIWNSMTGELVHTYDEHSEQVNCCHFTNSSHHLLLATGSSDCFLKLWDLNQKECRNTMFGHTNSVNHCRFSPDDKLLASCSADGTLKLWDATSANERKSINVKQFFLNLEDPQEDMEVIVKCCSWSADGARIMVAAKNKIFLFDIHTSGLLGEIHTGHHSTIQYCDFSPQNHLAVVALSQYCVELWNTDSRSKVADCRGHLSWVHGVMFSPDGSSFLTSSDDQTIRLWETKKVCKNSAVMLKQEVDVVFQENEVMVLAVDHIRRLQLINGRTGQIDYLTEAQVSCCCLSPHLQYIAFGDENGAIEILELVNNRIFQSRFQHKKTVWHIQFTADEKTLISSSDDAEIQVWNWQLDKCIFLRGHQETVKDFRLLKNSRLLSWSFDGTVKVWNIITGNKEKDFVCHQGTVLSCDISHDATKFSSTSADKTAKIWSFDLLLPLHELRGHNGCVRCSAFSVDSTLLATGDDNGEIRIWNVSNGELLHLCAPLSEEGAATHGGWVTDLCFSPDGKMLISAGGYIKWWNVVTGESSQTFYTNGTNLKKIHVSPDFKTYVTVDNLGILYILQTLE

[8] = biological target: T4, Ubiquitin-conjugating enzyme E2 N; assay type: functional; remark: listed apart in the source
HEK293 [9] = assay: membrane integrity loss in HEK cells – cell-based, fluorescence, cytotoxicity control for IDE activator project, dose response (AID 588440); assay type: functional; details: Homo sapiens;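 note: cytotoxicity by LDH release measuring loss of membrane integrity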
HEK293 [10] = assay: optical interference in Abeta FP readout, dose response, artefact control for IDE activator project, biochemical, fluorescence polarization (AID 588442); assay type: functional, cell-based; details: Homo sapiens
[11] = biological target: Mitochondrial peptide methionine sulfoxide reductase (Bos taurus, UniProt P54149); assay type: functional;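 note: absorbance read-out, biochemical high-throughput dose-response screen for MsrA inhibitors, confirmatory; recombinant bovine MsrA coupled to E. coli TrxB with NADPH and selenocystamine; potency is for inhibitors of MsrA activity on DMSO substrate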
Sequence of Mitochondrial peptide methionine sulfoxide reductase (P54149 whole entry): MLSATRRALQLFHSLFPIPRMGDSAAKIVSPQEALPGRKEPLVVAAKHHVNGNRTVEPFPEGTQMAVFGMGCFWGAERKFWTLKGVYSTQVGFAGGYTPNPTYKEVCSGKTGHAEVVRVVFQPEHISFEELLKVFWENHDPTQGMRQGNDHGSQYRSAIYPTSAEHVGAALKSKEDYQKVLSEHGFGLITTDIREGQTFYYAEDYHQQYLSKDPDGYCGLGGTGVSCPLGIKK

[12] = system: Streptococcus sp. 'group A'; assay: Streptococcus pyogenes SK(-)GAS viability under kanamycin – luminescence, BacTiterGlo, confirmation, counter-screen for streptokinase expression inhibitor project, dose response (AID 1900); assay type: functional, organism-based
[13] = HEK-293T viability loss after treatment – luminescence, T-cell screen hits, cytotoxicity control for TCR NF-kB inhibitor project, dose response (AID 489026); assay type: functional, cell-based;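 note: cells exposed to compound about 14 hours before the viability readout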
[14] = viability of HCT116 lacking mutant beta-catenin – cell-based, human colon tumor, dose response (AID 1045); assay type: functional;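 note: HCT116 colon tumor cells with beta catenin knocked out; cells exposed to compound for 60 hours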
Streptococcus = assay: GAS UMAA2166 growth inhibition – luminescence, BacTiterGlo, counter-screen for streptokinase expression inhibitor project, dose response (AID 1915); assay type: functional, organism-based;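 note: potency for reduction of bacterial viability or growth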
INS1 = assay: INS-1E survival protection against cytokine death – cell-based, luminescence, retest, dose response (AID 449756); assay type: functional; details: Rattus norvegicus;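 note: cell death triggered by IL-1 beta plus TNF-alpha plus IFN-gamma mixture; protective hits raise ATP signal compared with cytokine alone wells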
[15] = viability of PTEN-deleted HCT116 cells – cell-based, HCT116 PTEN knockout, dose response (AID 1047); assay type: functional;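 note: HCT116 colon tumor cells with PTEN knocked out; cells exposed to compound for 60 hours before readout; potency for loss of cell viability measured by luminescence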
[16] = Luminescence Cell-Based Dose Response HTS to Identify Inhibitors of 5'UTR Stem-Loop Driven Prion Protein mRNA Translation in H4 Neuroglioblastoma Cells. [Related pubchem assays: 1827 (Project Summary), 1813 (Primary HTS)]; assay type: functional
[17] = alpha-synuclein stem-loop luciferase translation blockers – H4 neuroglioma cells, luminescence, confirmation (AID 1988); assay type: functional, cell-based
[18] = luciferase reporter signal suppression in cells – H4 neuroglioma cells, luminescence, dose response (AID 1990); assay type: functional, cell-based
Streptokinase A = biological target: T6, Streptokinase A (Streptococcus pyogenes serotype M1, UniProt P10520); assay: viability-normalized secreted streptokinase activity reduction – plasminogen activation absorbance, OD405, dose response (AID 1914); assay type: functional, Streptococcus pyogenes M1 GAS;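 note: secreted streptokinase activity via plasminogen activation per viability signal from cell pellet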
T6 sequence (P10520 whole entry): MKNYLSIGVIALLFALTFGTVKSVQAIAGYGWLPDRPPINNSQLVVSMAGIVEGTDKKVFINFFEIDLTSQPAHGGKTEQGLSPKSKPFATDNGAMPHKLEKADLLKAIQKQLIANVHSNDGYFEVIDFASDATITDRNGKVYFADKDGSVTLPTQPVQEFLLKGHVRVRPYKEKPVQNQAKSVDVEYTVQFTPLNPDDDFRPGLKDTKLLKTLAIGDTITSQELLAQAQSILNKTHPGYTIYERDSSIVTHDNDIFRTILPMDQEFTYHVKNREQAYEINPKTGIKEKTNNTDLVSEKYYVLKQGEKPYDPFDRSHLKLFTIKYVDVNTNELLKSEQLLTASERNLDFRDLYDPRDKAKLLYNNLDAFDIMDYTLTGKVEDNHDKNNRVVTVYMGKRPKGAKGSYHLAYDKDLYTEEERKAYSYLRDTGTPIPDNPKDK

[19] = biological target: Neurotensin receptor type 1 (Homo sapiens, UniProt P30989); assay type: functional;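 note: Image-based confirmatory dose-response assay measuring agonist activity at NTR1; NTR1-expressing U2OS osteosarcoma cells imaged for beta-arrestin GFP spot formation; agonist potency where compounds increase beta-arrestin recruitment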
Sequence of Neurotensin receptor type 1 (P30989 whole entry, the tested form may be a part): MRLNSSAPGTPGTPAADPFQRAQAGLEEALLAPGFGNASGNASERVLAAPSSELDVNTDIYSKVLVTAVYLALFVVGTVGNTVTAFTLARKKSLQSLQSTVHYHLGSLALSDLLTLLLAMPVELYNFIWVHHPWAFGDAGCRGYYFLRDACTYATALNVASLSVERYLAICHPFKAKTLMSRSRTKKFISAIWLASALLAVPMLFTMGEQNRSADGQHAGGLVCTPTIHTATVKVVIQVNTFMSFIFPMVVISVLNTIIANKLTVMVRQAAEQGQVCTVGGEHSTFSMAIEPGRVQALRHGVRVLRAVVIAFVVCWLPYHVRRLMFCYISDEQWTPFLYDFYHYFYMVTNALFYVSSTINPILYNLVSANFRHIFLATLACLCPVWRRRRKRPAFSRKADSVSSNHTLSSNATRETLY

[20] = biological target: Photoreceptor-specific nuclear receptor (Homo sapiens, UniProt Q9Y5X4); assay type: functional, cell-based;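 note: CHO-S cells with Gal4-NCOR and VP16-NR2E3 two-hybrid luciferase reporter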
Sequence of Photoreceptor-specific nuclear receptor (Q9Y5X4 whole entry, the tested form may be a part): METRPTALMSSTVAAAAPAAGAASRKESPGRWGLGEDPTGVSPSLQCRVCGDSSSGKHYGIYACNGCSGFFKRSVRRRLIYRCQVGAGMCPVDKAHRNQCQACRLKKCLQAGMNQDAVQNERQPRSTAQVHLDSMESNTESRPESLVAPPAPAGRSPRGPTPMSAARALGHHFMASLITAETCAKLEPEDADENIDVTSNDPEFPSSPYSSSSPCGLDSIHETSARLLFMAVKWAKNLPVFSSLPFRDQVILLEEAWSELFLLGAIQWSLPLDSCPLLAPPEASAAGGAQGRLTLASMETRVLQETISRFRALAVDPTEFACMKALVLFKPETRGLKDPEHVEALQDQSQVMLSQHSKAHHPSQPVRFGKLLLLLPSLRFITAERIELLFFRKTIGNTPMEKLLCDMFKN

Fatty acid synthase [21] = biological target: T7, Fatty acid synthase (Homo sapiens, UniProt P49327); assay: inhibition of human FAS-TE enzyme activity – biochemical, endpoint fluorescence intensity, uHTS hits, dose response (AID 624327); assay type: functional;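 note: fluorescence from hydrolysis of an O-methyl fluorescein acyl ester substrate by the enzyme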
T7 sequence (P49327 whole entry): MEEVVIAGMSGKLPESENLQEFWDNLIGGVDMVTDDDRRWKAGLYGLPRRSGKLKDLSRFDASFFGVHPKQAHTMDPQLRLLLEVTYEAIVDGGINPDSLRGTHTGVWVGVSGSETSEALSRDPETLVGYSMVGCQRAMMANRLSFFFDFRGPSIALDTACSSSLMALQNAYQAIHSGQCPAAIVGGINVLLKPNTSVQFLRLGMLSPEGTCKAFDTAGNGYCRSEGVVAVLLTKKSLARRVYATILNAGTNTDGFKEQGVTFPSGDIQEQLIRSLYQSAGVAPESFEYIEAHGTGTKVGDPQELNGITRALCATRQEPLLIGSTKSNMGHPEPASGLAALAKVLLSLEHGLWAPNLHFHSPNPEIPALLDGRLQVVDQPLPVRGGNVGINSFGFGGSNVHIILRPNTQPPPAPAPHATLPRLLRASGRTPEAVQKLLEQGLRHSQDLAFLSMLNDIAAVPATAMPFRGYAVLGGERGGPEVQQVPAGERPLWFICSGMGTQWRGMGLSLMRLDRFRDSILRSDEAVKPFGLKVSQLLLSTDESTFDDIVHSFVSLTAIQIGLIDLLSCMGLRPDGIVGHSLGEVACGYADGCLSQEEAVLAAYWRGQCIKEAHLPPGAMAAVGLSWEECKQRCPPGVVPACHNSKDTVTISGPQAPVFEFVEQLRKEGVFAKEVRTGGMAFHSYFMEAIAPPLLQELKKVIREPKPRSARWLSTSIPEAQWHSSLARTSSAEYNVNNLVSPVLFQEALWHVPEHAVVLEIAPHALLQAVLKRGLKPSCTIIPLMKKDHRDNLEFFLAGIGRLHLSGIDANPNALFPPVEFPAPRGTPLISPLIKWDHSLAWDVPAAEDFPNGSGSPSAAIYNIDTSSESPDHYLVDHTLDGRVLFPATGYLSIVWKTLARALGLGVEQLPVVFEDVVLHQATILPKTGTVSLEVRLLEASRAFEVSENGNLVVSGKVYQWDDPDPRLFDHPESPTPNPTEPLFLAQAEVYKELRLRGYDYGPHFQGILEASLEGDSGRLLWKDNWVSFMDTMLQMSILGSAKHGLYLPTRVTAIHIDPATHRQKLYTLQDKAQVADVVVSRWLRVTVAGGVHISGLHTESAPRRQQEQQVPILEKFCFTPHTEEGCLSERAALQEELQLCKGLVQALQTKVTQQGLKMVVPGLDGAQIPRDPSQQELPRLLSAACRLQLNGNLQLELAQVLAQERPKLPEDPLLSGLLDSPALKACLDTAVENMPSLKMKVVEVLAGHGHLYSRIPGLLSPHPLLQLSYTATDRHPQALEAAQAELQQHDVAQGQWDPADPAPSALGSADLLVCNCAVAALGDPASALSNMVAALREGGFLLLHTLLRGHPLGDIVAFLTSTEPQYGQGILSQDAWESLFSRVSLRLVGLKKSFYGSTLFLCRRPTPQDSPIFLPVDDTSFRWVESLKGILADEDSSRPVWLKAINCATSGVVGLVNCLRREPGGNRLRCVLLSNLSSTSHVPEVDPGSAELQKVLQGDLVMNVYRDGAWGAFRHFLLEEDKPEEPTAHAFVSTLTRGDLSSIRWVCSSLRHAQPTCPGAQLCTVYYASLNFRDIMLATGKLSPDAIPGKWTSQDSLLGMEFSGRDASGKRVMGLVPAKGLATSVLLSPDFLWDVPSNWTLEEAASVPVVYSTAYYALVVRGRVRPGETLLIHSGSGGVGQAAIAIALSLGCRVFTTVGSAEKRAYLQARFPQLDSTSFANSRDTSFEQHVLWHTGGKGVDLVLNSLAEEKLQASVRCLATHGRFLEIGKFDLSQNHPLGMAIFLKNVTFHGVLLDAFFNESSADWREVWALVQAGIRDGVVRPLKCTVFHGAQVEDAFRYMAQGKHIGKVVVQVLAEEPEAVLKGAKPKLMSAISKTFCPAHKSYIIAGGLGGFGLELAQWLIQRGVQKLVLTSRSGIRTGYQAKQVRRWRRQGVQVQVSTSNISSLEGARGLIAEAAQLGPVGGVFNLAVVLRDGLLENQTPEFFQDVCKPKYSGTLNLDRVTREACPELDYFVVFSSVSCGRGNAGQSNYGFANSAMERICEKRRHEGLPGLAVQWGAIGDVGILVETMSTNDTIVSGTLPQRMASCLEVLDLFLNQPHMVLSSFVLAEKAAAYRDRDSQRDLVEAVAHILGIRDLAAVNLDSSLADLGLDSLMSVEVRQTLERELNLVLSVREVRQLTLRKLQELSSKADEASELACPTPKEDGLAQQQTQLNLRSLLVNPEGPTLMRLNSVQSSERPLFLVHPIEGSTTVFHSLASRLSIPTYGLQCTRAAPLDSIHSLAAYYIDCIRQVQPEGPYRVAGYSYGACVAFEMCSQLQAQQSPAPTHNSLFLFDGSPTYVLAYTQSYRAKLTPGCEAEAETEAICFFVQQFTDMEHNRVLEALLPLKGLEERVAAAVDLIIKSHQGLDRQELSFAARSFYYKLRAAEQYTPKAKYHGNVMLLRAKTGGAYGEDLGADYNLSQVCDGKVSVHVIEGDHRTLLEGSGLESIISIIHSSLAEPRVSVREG

[22] = Trypanosoma cruzi growth suppression in host cells – NIH3T3 host cells, beta-gal luminescence, confirmation (AID 2044); assay type: functional, cell-based;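 note: intracellular parasites grown in NIH/3T3 mouse fibroblasts as host cells; luminescent beta-galactosidase reporter signal from transgenic T. cruzi replicating inside host cells; inhibitors lower the luminescence signal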
Fatty acid synthase [23] = biological target: T7, Fatty acid synthase; assay: inhibition of human FAS-TE enzyme activity – biochemical, kinetic fluorescence intensity, dose response (AID 624326); assay type: functional;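 note: rate of fluorescence rise from hydrolysis of a fluorogenic O-methyl fluorescein ester substrate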
[24] = NIH3T3 cell viability loss – ATP luminescence, mouse fibroblasts, counter-screen, dose response (AID 2010); assay type: functional, cell-based;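 note: cells exposed to compound for about 90 hours before reading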

CC(=O)Nc1ccc(-c2csc(NC(=O)Nc3ccccc3)n2)cc1
IC50 (H9c2): 38.3 µM (inactive) | EC50 (Melanocortin receptor 4): > 89.2 µM (inactive)

CCn1cc(C(=O)O)c(=O)c2cc(F)c(N3CCN(C(=S)NC(=O)c4cccc(F)c4)CC3)cc21
IC50 [1]: 8.61 µM (active)

CCOC(=O)C(C)Sc1nnc(Cc2cc(O)nc(O)n2)n1-c1ccc(Cl)cc1 (stereo unspecified)
IC50 [2]: > 66 µM (inactive) | IC50 [3]: > 66 µM (inactive)

Cn1ccc2c(-c3ccc(F)nc3)cc3c(c21)C1CCC3C1 (stereo unspecified)
EC50 (Lethal factor): 10.6 µM (active)

Nc1nnc2cc(Br)ccc2n1
IC50 [2]: 35.7 µM (inactive) | IC50 [3]: > 66 µM (inactive)

C#CCOCCOCCOCCNc1nc(N2CCN(C(=O)CCCCCCCCCCNC(=O)[C@H]([C@@H](C)CC)n3cc(CCCCCN)nn3)CC2)nc(N2CCN(C(=O)CCCCCCCCCCNC(=O)[C@H](CO)n3cc(CCCCCN)nn3)CC2)n1
IC50 (Bcl-2-related protein A1): > 20 µM (inactive) | EC50 (Insulin-degrading enzyme [4]): 9.67 µM (active) | IC50 [5]: 2.64 µM (active) | EC50 (Insulin-degrading enzyme [6]): > 6.08 µM (active) | IC50 [7]: 25 µM (active) | IC50 [8]: 4.22 µM (active) | IC50 (HEK293 [9]): 9.37 µM (active) | EC50 (HEK293 [10]): > 56 µM (inactive)

CCCOc1ccc(C(=O)NC(=S)N2CCN(c3ncc4c(=O)c(C(=O)O)cn(CC)c4n3)CC2)cc1
IC50 [1]: 9.82 µM (active)

COc1cc(OC)c(OC)cc1/C=N/NC(=O)c1ccc(=O)n(C)c1
IC50 [11]: 102 µM (inactive)

COc1ccc(Cn2c(SCc3ccc(C)cc3)nc3cc(OC)c(OC)cc3c2=N)cc1Cl
EC50 [12]: 2.52 µM (active) | IC50 [13]: > 80 µM (inactive) | EC50 (Insulin-degrading enzyme [4]): > 54.7 µM (inactive) | EC50 (Insulin-degrading enzyme [6]): 15.5 µM (inactive) | EC50 [14]: 3.32 µM (active) | EC50 (Streptococcus): 8.22 µM (active) | AC50 (INS1): 3.85 µM (active) | EC50 [15]: 3.54 µM (active) | EC50 [16]: > 120 µM (not active) | IC50 (HEK293 [9]): 15.9 µM (inactive) | EC50 [17]: > 120 µM (not active) | EC50 (HEK293 [10]): > 54.7 µM (inactive) | EC50 [18]: > 120 µM (not active) | EC50 (Streptokinase A): 5.92 µM (active) | EC50 [19]: 5.35 µM (active)

CCc1cccc2sc(N3CCN(C(=O)c4ccc([N+](=O)[O-])o4)CC3)nc12
EC50 [12]: 5.99 µM (active) | IC50 [20]: 4.71 µM (active) | EC50 (Streptococcus): 12.1 µM (active) | IC50 (Fatty acid synthase [21]): 13.3 µM (active) | EC50 [22]: 0.307 µM (active) | IC50 (Fatty acid synthase [23]): 12.9 µM (active) | EC50 [24]: 5.4 µM (active) | EC50 (Streptokinase A): 2.38 µM (active)
